Common to all, as to assay: NCI tumour cell line growth inhibition, 48 h
The subject of assay [1] is A498 renal.
Assay [2] concerns A549 NSCLC.
Assay [3] has as its system HCT-116 colon.
Assay [4] has as its system HS 578T breast.
Assay [5] has as its system IGROV1 ovarian.
Assay [6] relates to K-562 leukemia.
For assay [7], the system named is NCI-H226 lung.
Assay [8] relates to SK-MEL-2 melanoma.
For assay [9], the system named is T-47D breast.
Assay [10] concerns UACC-62 melanoma.

Where “and” joins values, the source holds several entries; their conditions need not be identical. Equal entries are not always repeated.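 Interpolation was linear, between the two tested concentrations surrounding the appropriate level; five concentrations were tested over 48 hours in 96-well plates. GI50: concentration for 50% inhibition of growth. TGI denotes the concentration required for complete inhibition of growth.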

On to `CN[C@@H](Cc1cccc2ccccc12)C(=O)N[C@@H](CC(C)C)B(O)O`, for which the GI50 in assay [1] is 0.00553 µM; in [2], 0.0465 µM; in assay [3] it was 0.0118 µM; in [5], 0.0187 µM; in [6], 0.0228 µM; in [8], 0.0237 µM. For the same compound, the GI50 was 0.0156 µM in assay [9] and 0.017 µM in assay [10]. For the same compound, the TGI in assay [1] was 0.0452 µM; in assay [3], 0.0285 µM; in [4], 0.0577 µM; in assay [5], 0.0554 µM and 0.0681 µM; in assay [6], 0.0952 µM; in assay [7], 0.00722 µM. Besides, the TGI in assay [8] was 0.0599 µM and 0.104 µM; in assay [9], 0.0372 µM; in assay [10] it was 0.0344 µM and < 0.0154 µM.
For the compound `C#CCOC(=O)/C=C/C(=O)Oc1ccc2c(C)cc(=O)oc2c1`, the GI50 in assay [1], in [2], in assay [3], in assay [4], in [5] and in assay [6] was more than 100 µM each time. The GI50 in [7], in assay [8], in assay [9] and in [10] was more than 100 µM in each case. Also, the TGI in assay [1], in [2], in assay [3], in [4], in assay [5] and in [6] was more than 100 µM in each case. Besides, the TGI in assay [7], in assay [8], in assay [9] and in assay [10] was more than 100 µM each time.
On to `FC(F)(F)c1cc(NC(=S)N2c3ccccc3-n3cccc3C2c2cccnc2)cc(C(F)(F)F)c1` (configuration not stated), for which the GI50 in assay [1] was 13.7 µM; in assay [2], 9.25 µM; in assay [3] it was 12.4 µM; in assay [4], 12.5 µM; in [5] it was 8.76 µM; in assay [6], 3.58 µM. For the same compound, the GI50 in assay [7] was 22.7 µM; in [8] it was 12.7 µM; in assay [9] it was 3.89 µM; in [10], 11.7 µM. For the same compound, the TGI was 30.3 µM in assay [1]; 26.8 µM in [2]; 40.3 µM in [3]; 40.6 µM in assay [4]; 22.9 µM in assay [5]; 19.3 µM in assay [6]. In addition, the TGI in assay [7] was 54.7 µM; in [8] it was 31.6 µM; in assay [9], 26.2 µM; in assay [10], 24.4 µM.
With `O=C(Nc1ccccc1Cl)c1ccc(NC2=C(Cl)C(=O)N(C3CCCCC3)C2=O)cc1`, the GI50 is 40.6 µM in assay [1]; 13.3 µM in assay [2]; 5.51 µM in assay [3]; 6.75 µM in [4]; 6.87 µM in assay [5]; 2.88 µM in [6]. The GI50 in assay [7] was 9.4 µM; in [8] it was 16.7 µM; in assay [9], 6.41 µM; in [10], 6.78 µM. The TGI stood at 157 µM in assay [1]; 32.9 µM in assay [2]; 36.1 µM in [3]; 133 µM in assay [4]; 23.3 µM in assay [5]; 17.9 µM in assay [6]. Further, the TGI in assay [7] was found to be 31.8 µM; in assay [8], 44.1 µM; in [9], 34.8 µM; in assay [10] it was 26.5 µM.
Take `Cc1ccc(-c2nc(/C=N/Nc3cc(C)nc4ccc(Br)cc34)c(C)o2)cc1`: the GI50 in [1] was 3.73 µM; in [2], 1.82 µM; in assay [3], 1.85 µM; in assay [4], 17 µM; in assay [5] it was 1.84 µM; in assay [6], 1.93 µM. The GI50 in assay [7] is 15 µM; in [8], 19.7 µM; in [9] it was 1.94 µM; in [10], 1.73 µM. The TGI in assay [1] was found to be 20.4 µM; in assay [2], 3.52 µM; in assay [3] it was 3.46 µM; in [4] it was 38.6 µM; in assay [5], 3.52 µM; in assay [6] it was 4.58 µM. Further, the TGI in [7] worked out at 42.1 µM; in assay [8], 41.2 µM; in [9] it was 3.94 µM; in assay [10] it was 3.36 µM.
In the case of `O=C(O)CN1C(=O)CN=C(c2ccccn2)c2cc(Cl)ccc21`, the TGI in assay [1], in assay [2], in [3], in [4], in assay [5] and in [6] was more than 100 µM throughout. In addition, the TGI in assay [7], in assay [8], in [9] and in assay [10] was more than 100 µM in each case.
Consider `O=C1/C(=C/c2ccc(F)cc2)CN(C(=O)C(Cl)Cl)C/C1=C\c1ccc(F)cc1`, for which the GI50 in assay [1] is 0.404 µM; in assay [2], 0.324 µM; in [3] it was 0.0673 µM; in [4] it was 0.325 µM; in assay [5], 0.188 µM; in assay [6], 0.0533 µM. Besides, the GI50 in assay [7] is 4.22 µM; in assay [8] it was 0.94 µM; in assay [9], 0.702 µM; in [10], 0.237 µM. For the same compound, the TGI is 1.54 µM in assay [1]; 1.38 µM in assay [2]; 0.215 µM in assay [3]; 1.37 µM in [4]; 0.41 µM in assay [5]; more than 100 µM in assay [6]. Further, the TGI was 22.5 µM in [7], 2.9 µM in [8], 3.6 µM in [9] and 0.641 µM in assay [10].
As to `CCN1C(=O)N(CC)C2C1NN=c1s/c(=C\c3ccc(C(F)(F)F)cc3)c(=O)n12` (configuration not stated), the GI50 is 0.164 µM in assay [1]; 0.395 µM in assay [2]; 0.343 µM in assay [3]; 0.349 µM in assay [4]; 0.576 µM in assay [5]; 0.294 µM in assay [6]. The GI50 in assay [7] was 1.14 µM; in [8], 0.859 µM; in assay [9], 0.36 µM; in assay [10], 0.577 µM. The TGI in assay [1] is 0.719 µM; in [2], more than 43.1 µM; in [3], more than 32.8 µM; in [4], more than 42.5 µM; in assay [5] it was 33.1 µM; in assay [6], more than 39.8 µM. The TGI in assay [7] was more than 24.8 µM; in assay [8], more than 52.3 µM; in assay [9] it was 71.3 µM; in assay [10], more than 44.7 µM.

The record behind these values is PubChem BioAssay (NCI).
